# Results published in PMC10072326, “Promising anticancer agents based on 8-hydroxyquinoline hydrazone copper(II) complexes” (Frontiers in Chemistry, 2023).
# Experiments:
# [1] = set-up: method as in Ribeiro et al., 2022; settings: 30% (v/v) DMSO/H2O; t = 25.0°C; I = 0.1 M (KCl); ref Ribeiro et al., 2022; cited from earlier work
# [2] = set-up: method as in Ribeiro et al., 2022; settings: ligand precursors; pH 7.4; ref Ribeiro et al., 2022; cited from earlier work
# [3] = target: bovine serum albumin (BSA) (Bos taurus, UniProt P02769); experiment: BSA fluorescence quenching; type: binding; set-up: Affinity constant K ± SD: unit not given here; settings: fluorescence quenching; HypSpec2014; 1:1 species assumed
# Chain of bovine serum albumin (BSA) (P02769 25-607): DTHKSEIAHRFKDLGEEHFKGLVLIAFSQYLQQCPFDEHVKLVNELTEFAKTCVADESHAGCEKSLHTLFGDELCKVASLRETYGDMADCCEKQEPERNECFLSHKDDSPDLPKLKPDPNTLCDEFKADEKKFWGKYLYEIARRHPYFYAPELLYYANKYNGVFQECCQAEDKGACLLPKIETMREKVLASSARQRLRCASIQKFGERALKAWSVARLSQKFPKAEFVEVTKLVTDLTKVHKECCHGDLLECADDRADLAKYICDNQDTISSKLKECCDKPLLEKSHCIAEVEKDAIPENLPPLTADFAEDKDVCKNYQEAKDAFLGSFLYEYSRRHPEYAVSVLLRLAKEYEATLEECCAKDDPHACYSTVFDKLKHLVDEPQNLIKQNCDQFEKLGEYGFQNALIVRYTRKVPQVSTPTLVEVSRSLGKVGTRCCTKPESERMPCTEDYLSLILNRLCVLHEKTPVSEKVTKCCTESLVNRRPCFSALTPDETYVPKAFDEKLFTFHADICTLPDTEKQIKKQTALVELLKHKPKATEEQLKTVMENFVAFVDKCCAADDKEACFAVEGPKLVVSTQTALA
# Protocol: To evaluate the interaction of the compounds, both organic and Cu(II) complexes, with bovine serum albumin (BSA) fluorescence spectra were measured. In a typical fluorescence experiment, to a solution of 1.5 μM of BSA in the same buffer, successive aliquots of a stock solution of each compound in DMSO were added directly to the cuvette (optical path 1.0 cm). The fluorescence emission was recorded between 310 and 600 nm with excitation at 295 nm. The final DMSO % was kept below 2% (v/v). The Stern-Volmer plots were built using the emission at 340 nm and blank samples (in the absence of BSA) with the same concentration of the complexes were recorded and subsequently subtracted from the corresponding emission spectra containing the fluorophore. Moreover, the fluorescence emission intensity was corrected for reabsorption and inner filter effects using UV-Vis absorption data recorded for each sample, since all complexes absorb in the measured wavelength range (19, 20).
# The interaction of the organic compounds and Cu(II) complexes with BSA was monitored by studying the quenching of albumin’s fluorescence emission with increasing concentrations of the complexes (25). Overall, the intensity of the Trp emission decreases with the addition of the complexes, except for 8 (see Figs. S19). The Stern-Volmer relationship was used to analyse the fluorescence quenching process:
# where I0 and I are the fluorescence intensities in the absence and in the presence of quencher, kq is the bimolecular quenching rate, τ0 is the fluorophore lifetime in the absence of the quencher (6.22 ns) (26) and [Q] is the quencher concentration. […] This linear relationship is obeyed for all complexes except 5, where a downward curvature is observed. This can be an indication of two distinct binding sites, corresponding to two populations of fluorophores, one being accessible and other inaccessible or buried inside the protein. In such cases, the Stern-Volmer relation can be modified to (27):
# where ΔI = I0 – I, Ka is the Stern-Volmer constant for the accessible fraction and fa is the fraction of accessible fluorophore. […] As first approximation, the total concentration of quencher was used to check the quenching mechanism. […] As all systems presented high absorbance values in the measured range of wavelengths, no excess of quencher was used and, therefore, 1:1 species will be assumed for these interactions.
# A-375 cells = experiment: Sulforhodamine B (SRB) cell viability assay; type: cell-based; settings: Homo sapiens, 72 h
# Protocol: (§1) Copper compounds were tested, along with the free ligands and cisplatin as the positive control, for their cytotoxicity on both melanoma (A-375) and lung adenocarcinoma (A-549) cell lines in the concentration range 0.78–50 μM. Following 72 h of incubation, cell viability was measured via sulforhodamine B (SRB) assay (Supplementary Figure S25).
# (§2) A-375 cells (ATCC, CRL-3222) were grown in Dulbecco’s Modified Eagle Medium with high glucose (Gibco #11965118) and A-549 (ATCC, CCL-185) cells were grown in Dulbecco’s Modified Eagle Medium F-12 (Gibco #11320033), supplemented with 10% FBS (Gibco, #10500064) and Penicillin-Streptomycin (10,000 U/mL, Gibco, #15140122). Cells were incubated at 37 °C, 5% CO2 incubator and subcultured every 3 days.
# (§3) All the tested complexes were dissolved in DMSO (10 mM stock solution), and aliquots were stored at -20 °C, thawed on the experiment day and used only once. For SRB cell viability assay, A-375 and A-549 cells were seeded on 96-well plates (4×10^3 cells/well) and treated with serial dilutions of indicated compounds (with a concentration range of 0-50 μM, 72 h). Trichloroacetic acid (TCA) was added to wells for fixation at a final concentration of 10%, for 1 h at 4 °C. Each well was washed five times with ddH2O, dried, and incubated with 0.4% (w/v) SRB dye (50 µL/well) for 30 min at room temperature. The wells were washed with 1% acetic acid (v/v) five times, and 150 µL of 10 mM Tris solution was added to dissolve the stain. Colorimetric measurements were taken at λ = 564 nm. Viability percentage was calculated as follows: % Cell Viability = [100 × (sample Abs.-blank) / (non-treated control Abs.-blank)].
# A-549 cells = experiment: Sulforhodamine B (SRB) cell viability assay; type: cell-based; settings: Homo sapiens, A549, 72 h
# Protocol: as §1, §2, §3
# [4] = Cu(II) complex formation and stability constants by UV-Vis spectrophotometric titrations; type: physicochemical; settings: for pCu (= −log[Cu(II)]): pH 7.4, c Cu(II) = 1 μM, computed from stability constants
# Protocol: The complex formation processes of L^1, L^5 and L^6 with Cu(II) ions were studied by UV-Vis spectrophotometry in 30% (v/v) DMSO/H2O using relatively low concentrations (c L = 50–60 μM), due to the limited water solubility of the ligand precursors as well as of the Cu(II) complexes (see thermodynamic solubility data in aqueous media in Table 2 and Table 3). L^1 was selected as the simplest compound of the studied ligand series, whereas L^5 and L^6 were selected to compare with the oxidovanadium(IV) system ([Ribeiro et al., 2022]). The solution stability and stoichiometry of the Cu(II) complexes were determined by the evaluation of the UV-Vis spectra recorded at various pH values (representative spectra are shown for the Cu(II) ‒ L^1 and Cu(II) ‒ L^6 systems in Figures 3A,B and for Cu(II) ‒ L^5 in Supplementary Figure S10A). The computed overall stability constants and pK a values of the complexes are collected in Table 3. The formation of only mono-ligand complexes was found with [Cu(LH)]^+, [Cu(L)], and [Cu(LH‒1)]^‒ (and [Cu(LH‒2)]^2‒ in the case of L^6) compositions, and their computed molar absorbance spectra are shown in Figures 3C, D, Supplementary Figure S10B.
# An Agilent Cary 8454 diode array spectrophotometer was used to record the UV-Vis spectra in the range of 200–800 nm. Titrations were carried out with a Metrohm 665 Dosimat burette and an Orion 710A pH-meter equipped with a Metrohm combined electrode. A ionic strength of 0.10 M (KCl) was used to keep the activity coefficients constant. The titrations were performed with 0.10 M carbonate-free KOH solution in a 30% (v/v) DMSO/H2O solvent mixture. […] The average water ionization constant (pKw) is 14.53 ± 0.05 in the 30% (v/v) DMSO/H2O solvent mixture. The pKa values of the ligand precursors and the logβ values for the Cu(II) complexes were determined in 30% (v/v) DMSO/H2O in the same way as it was done in our previous publications (9, 11).
# Spectrophotometric titrations were carried out on samples containing the ligands at 50 μM concentration, in the pH range from 2.0 to 11.5 in the absence or the presence of 1, 0.5 or 0.25 equiv. Cu(II) ions, using 10 cm^3 sample volumes. Proton dissociation constants (pKa) of the ligand precursors as well as stoichiometry and stability constants of the Cu(II) complexes (β) were calculated by the computer program PSEQUAD (12). The usual definition of overall (β) and stepwise (K) formation constants is used: […]
# [5] = Cu(II) complex of the ligand, 30% (v/v) DMSO/H2O, t = 25.0°C, I = 0.10 M (KCl)
# [6] = proton dissociation of the Cu(II) complex, 30% (v/v) DMSO/H2O
compound,measurement,setting,value
O=C(N/N=C/c1ccc2cccc(O)c2n1)c1ccccc1 [L^1],pK a1,[1],2.24
same,pK a2,[1],9.51
same,pK a3,[1],11.45
same,thermodynamic solubility S 7.4,[2],3.7 µM
same,Affinity constant K ± SD,[3],(4.6 ± 0.2) × 10^5
same,IC50,A-375 cells,12.3 ± 0.5 µM
same,IC50,A-549 cells,> 50 µM
same,logβ [Cu(L)],[4]; [5],17.79 ± 0.02
same,logβ [Cu(LH)]^+,[4]; [5],23.41 ± 0.02
same,logβ [Cu(LH‒1)]^‒,[4]; [5],7.39 ± 0.03
same,pCu (= −log[Cu(II)]),[4]; c L = 1 μM,8.96
same,pCu (= −log[Cu(II)]),[4]; c L = 10 μM,12.59
same,pK a [Cu(L)],[4]; [6],10.40
same,pK a [Cu(LH)]^+,[4]; [6],5.62
